Here are results for twelve molecules from US8097634B2, “Azacyclic derivatives” (Hoffmann-La Roche Inc., priority 2010, dated 2012).

The target of the assay is T1, human HSL (Homo sapiens, UniProt Q05469).
T1 construct: fused on or other part: C-terminal His6 tag
T1 sequence (Q05469 1-1076): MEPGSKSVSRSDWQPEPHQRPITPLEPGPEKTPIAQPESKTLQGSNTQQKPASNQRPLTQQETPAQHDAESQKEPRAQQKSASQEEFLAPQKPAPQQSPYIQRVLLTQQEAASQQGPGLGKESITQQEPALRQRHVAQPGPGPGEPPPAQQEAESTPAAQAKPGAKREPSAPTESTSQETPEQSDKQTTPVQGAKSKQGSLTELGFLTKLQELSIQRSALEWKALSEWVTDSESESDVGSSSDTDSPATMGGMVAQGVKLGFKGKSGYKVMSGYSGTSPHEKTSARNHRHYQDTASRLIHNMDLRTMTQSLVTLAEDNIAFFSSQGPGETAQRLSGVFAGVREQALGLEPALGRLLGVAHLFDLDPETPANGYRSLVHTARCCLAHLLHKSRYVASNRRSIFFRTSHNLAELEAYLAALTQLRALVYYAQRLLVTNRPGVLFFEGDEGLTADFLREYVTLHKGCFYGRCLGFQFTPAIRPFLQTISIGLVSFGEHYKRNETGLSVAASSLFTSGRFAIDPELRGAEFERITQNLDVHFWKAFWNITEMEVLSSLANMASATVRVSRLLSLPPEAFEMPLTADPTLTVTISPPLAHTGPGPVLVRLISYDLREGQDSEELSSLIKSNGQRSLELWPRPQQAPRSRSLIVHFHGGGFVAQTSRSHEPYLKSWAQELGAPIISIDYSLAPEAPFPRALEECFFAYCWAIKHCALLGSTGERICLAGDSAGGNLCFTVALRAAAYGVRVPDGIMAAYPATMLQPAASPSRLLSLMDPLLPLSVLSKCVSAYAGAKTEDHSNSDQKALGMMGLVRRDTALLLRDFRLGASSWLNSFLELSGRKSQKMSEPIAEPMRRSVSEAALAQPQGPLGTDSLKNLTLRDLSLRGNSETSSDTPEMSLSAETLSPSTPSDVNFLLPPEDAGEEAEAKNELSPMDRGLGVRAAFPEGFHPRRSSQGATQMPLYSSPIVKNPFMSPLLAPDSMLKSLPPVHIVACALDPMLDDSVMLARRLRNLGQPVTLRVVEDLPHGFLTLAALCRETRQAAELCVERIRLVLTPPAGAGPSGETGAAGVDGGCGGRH
Kind of assay: Human Hormone-Sensitive Lipase (HSL) enzyme inhibition assay (colorimetric, DMPT substrate). The assay is classed as biochemical. To be noted: human full length HSL-His6, 2,3-dimercapto-1-propanol tributyrate substrate, 37° C. 20 minutes; read-out: HSL hum IC50. How it is done: Production of Human full length Hormone Sensitive Lipase-His^6:
1) Cloning: cDNA was prepared from commercial human brain polyA+ RNA and used as a template in overlapping PCR to generate a full length human HSL ORF with a 3′-His6 tag. This full length insert was cloned into the pFast-BAC vector and the DNA-sequence of several single clones was verified. DNA from a correct full length clone with the 3′His6 tag was used to transform the E. coli strain DH10BAC. Resulting bacmid DNA was used to generate a titered baculovirus stock for protein generation. The sequence of the encoded HSL conforms to Swissprot entry Q05469, with the additional C-terminal His6-tag.
2) Protein purification: Culture: 5.5 L, High 5 cells expressing human full length HSL-His^6, 48 hr., containing 25 μM E-64. Cell count: […], 90% viable.
Cells were thawed. On ice, cells were suspended in Base Buffer containing 10% glycerol, 25 mM Tris-Cl, 300 mM NaCl, 10 mM imidazole, 10 mM 2-mercaptoethanol, 2 μg pepstatin/ml, 2 μg leupeptin/ml, 2 μg antipain/ml, pH 8.0 at 4° C. in a final volume of 475 ml with 3.75×10^7 cells/ml. […] was done at 3×30 sec., Lubrol PX was added to 0.2% final concentration followed by stirring for 15 min. at 4° C. and centrifugation at 25 k×g, 60 min., 4° C. Soluble proteins were mixed with 60 ml of pre-washed and equilibrated Ni-NTA Agarose (Qiagen 30210) followed by tumbling end-over-end, 45 min., 4° C., centrifugation 1000 rpm 5 min and letting resin settle 5 min. Supernatant was removed, the resin washed in the centrifuge vessel using 5 volumes of Base Buffer containing 0.2% Lubrol PX. Centrifugation was done again, then the supernatant discarded. The resin was poured onto a 0.8 μm membrane in a disposable filter unit (Nalge 450-0080), and washed with 5 volumes of Base Buffer containing 0.2% Lubrol PX. It was then washed with 30 volumes of Base Buffer containing 60 mM imidazole pH 7.5 at 4° C. The protein was eluated with 5 volumes of 25 mM Tris-Cl, 300 mM NaCl, 200 mM imidazole, 10 mM 2-mercaptoethanol, pH 7.5 at 4° C. by tumbling resin with buffer end-over-end, 30 min., 4° C. The resin was captured on a 0.2 μm membrane disposable filter unit (Millipore SCGP U02 RE) and the eluate collected in the reservoir. The eluate was concentrated using a 30 k MWCO centrifugal filter device (Sartorius Vivascience Vivacell 100, VC1022), to 20 ml. It was then dialyzed overnight at 4° C., two times against 2 L of 10% glycerol, 25 mM Tris-Cl, 300 mM NaCl, 0.2 mM EDTA, 0.2 mM DTT, pH 7.5 at 4° C. The protein was filtered using a 0.22 μm disposable filter unit (Millipore SCGP00525). The protein concentration was calculated from absorbance at 280 nm, using 280=0.67 cm-1 mg-1. Yield was 235 mg, total. The protein was stored at −80° C.
Human Hormone-Sensitive Lipase (HSL) enzyme inhibition assay:
HSL enzyme activity was measured by a colorimetric assay using 2,3-dimercapto-1-propanol tributyrate (Aldrich, St. Louis, Mo.) as a substrate. Typically, 1.5 mM 2,3-dimercapto-1-propanol tributyrate (DMPT) in 100 mM MOPS, pH 7.2, 0.2 mg/ml fatty acid-free BSA was prepared by sonication at 4° C. to homogenous suspension. Test compounds (2 mM stock in DMSO) were diluted 3 fold in series in DMSO. Compound solutions were diluted 24 fold in 1.5 mM DMPT containing solution and 18 ul per well was added to 384-well microplates (Corning Costar). Twelve microliters per well of human HSL (15 ug/ml) was added and the reaction mixture was incubated at 37° C. for 20 minutes. Six microliters of 12 mM dithio-bis-(2-nitrobenzoic acid) (DTNB) in DMSO plus 1.2% SDS and 0.6% Triton X-100 were added and the mixture was incubated at room temperature for 15 minutes. Product production was monitored by reading absorbance at 405 nm on an Envision Reader (PerkinElmer Life and Analytical Sciences, Shelton, Conn.).

A word on the IC50: it is the concentration that gives 50% inhibition.

SMILES strings stand for the structures.

Take `O=C1CC2(CCN1Cc1ccccc1)CCN(c1ccc(OC(F)(F)F)cc1)C2=O` (stereo not drawn) [Example 1, 8-Benzyl-2-(4-trifluoromethoxy-phenyl)-2,8-diaza-spiro[4.5]decane-1,7-dione]: the IC50 was found to be 270 nM.

In the case of `CCCN1CCC2(CCN(c3ccc(OC(F)(F)F)cc3)C2=O)CC1=O` (stereo not drawn) [Example 2, 8-Propyl-2-(4-trifluoromethoxy-phenyl)-2,8-diaza-spiro[4.5]decane-1,7-dione], the concentration for half-maximal inhibition (IC50) was found to be 250 nM.

For `O=C1CC2(CCN(c3ccc(OC(F)(F)F)cc3)C2=O)CCN1S(=O)(=O)c1ccccc1Cl` (stereo not drawn) [Example 3, 8-(2-Chloro-benzenesulfonyl)-2-(4-trifluoromethoxy-phenyl)-2,8-diaza-spiro[4.5]decane-1,7-dione], the IC50 is 30 nM.

With `CC(C)CS(=O)(=O)N1CCC2(CCN(c3ccc(OC(F)(F)F)cc3)C2=O)CC1=O` (stereo not drawn) [Example 4, 8-(2-Methyl-propane-1-sulfonyl)-2-(4-trifluoromethoxy-phenyl)-2,8-diaza-spiro[4.5]decane-1,7-dione], the IC50 came to 160 nM.

`CC(C)(C)CC(=O)N1CCC2(CCN(c3ccc(OC(F)(F)F)cc3)C2=O)CC1=O` (stereo not drawn) [Example 5, 8-(3,3-Dimethyl-butyryl)-2-(4-trifluoromethoxy-phenyl)-2,8-diaza-spiro[4.5]decane-1,7-dione]: the IC50 is 110 nM.

As for `CN1CCC2(CCN(c3ccc(OC(F)(F)F)cc3)C2=O)CC1=O` (stereo not drawn) [Example 6, 8-Methyl-2-(4-trifluoromethoxy-phenyl)-2,8-diaza-spiro[4.5]decane-1,7-dione], the 50% inhibitory concentration (IC50) is 6020 nM.

With `CCN1CCC2(CCN(c3ccc(OC(F)(F)F)cc3)C2=O)CC1=O` (stereo not drawn) [Example 7, 8-Ethyl-2-(4-trifluoromethoxy-phenyl)-2,8-diaza-spiro[4.5]decane-1,7-dione], the IC50 is 810 nM.

Consider `CCCCN1CCC2(CCN(c3ccc(OC(F)(F)F)cc3)C2=O)CC1=O` (stereo not drawn) [Example 8, 8-Butyl-2-(4-trifluoromethoxy-phenyl)-2,8-diaza-spiro[4.5]decane-1,7-dione], for which the IC50 amounted to 100 nM.

Regarding `CC(C)(C)CN1CCC2(CCN(c3ccc(OC(F)(F)F)cc3)C2=O)CC1=O` (stereo not drawn) [Example 9, 8-(2,2-Dimethyl-propyl)-2-(4-trifluoromethoxy-phenyl)-2,8-diaza-spiro[4.5]decane-1,7-dione], the IC50 amounted to 80 nM.

In the case of `O=C1CC2(CCN(c3ccc(CC(F)(F)F)cc3)C2=O)CCN1S(=O)(=O)c1ccccc1Cl` (stereo not drawn) [Example 10, 8-(2-chlorophenylsulfonyl)-2-(4-(2,2,2-trifluoroethyl)phenyl)-2,8-diazaspiro[4.5]decane-1,7-dione], the 50% inhibitory concentration (IC50) is 30 nM.

As for `CC(C)(C)CC(=O)N1CCC2(CCN(c3ccc(CC(F)(F)F)cc3)C2=O)CC1=O` (stereo not drawn) [Example 11, 8-(3,3-dimethylbutanoyl)-2-(4-(2,2,2-trifluoroethyl)phenyl)-2,8-diazaspiro[4.5]decane-1,7-dione], the concentration for half-maximal inhibition (IC50) worked out at 60 nM.

Turning to `CC(C)(C)CC(=O)N1CCC2(CCN(c3ccc(OCC(F)(F)F)cc3)C2=O)CC1=O` (stereo not drawn) [Example 12, 8-(3,3-dimethylbutanoyl)-2-(4-(2,2,2-trifluoroethoxy)phenyl)-2,8-diazaspiro[4.5]decane-1,7-dione], the 50% inhibitory concentration (IC50) stood at 140 nM.
